Several values for one entry are separate records, joined by “and”; a condition that tells them apart may be missing. Equal entries are not always repeated.
Experiments:
[1] = biological target: T1, hCXCR2 (Homo sapiens, UniProt P25025); test: CXCR2 SPA assay ([125I]-IL-8 binding, incl. alternative 50 μl and 200 μl protocols); conditions: hCXCR2-CHO membranes
T1 construct: purchased Biosignal / Biosignal Packard; host or cells: CHO
T1 sequence (P25025 1-360): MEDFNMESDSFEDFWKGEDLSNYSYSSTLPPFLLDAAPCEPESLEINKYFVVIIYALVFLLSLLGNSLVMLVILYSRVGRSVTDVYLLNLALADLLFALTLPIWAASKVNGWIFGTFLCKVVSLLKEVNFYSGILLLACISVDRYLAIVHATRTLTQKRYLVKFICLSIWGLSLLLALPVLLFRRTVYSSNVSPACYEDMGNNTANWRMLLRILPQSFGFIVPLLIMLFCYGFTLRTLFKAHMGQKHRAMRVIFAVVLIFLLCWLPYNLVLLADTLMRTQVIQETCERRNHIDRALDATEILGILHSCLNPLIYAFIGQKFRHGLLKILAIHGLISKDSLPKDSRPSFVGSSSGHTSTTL
Protocol: For each well of a 96 well plate, a reaction mixture of 4 μg hCXCR2-CHO overexpressing membranes (Biosignal) and 200 μg/well WGA-SPA beads (Amersham) in 100 μl was prepared in CXCR2 assay buffer (25 mM HEPES, pH 7.4, 2 mM CaCl2, 1 mM MgCl2). A 0.4 nM stock of ligand, [125I]-IL-8 (NEN), was prepared in the CXCR2 assay buffer. 20× stock solutions of test compounds were prepared in DMSO (Sigma). A 6× stock solution of GRO-α (R&D) was prepared in CXCR2 assay buffer. The above solutions were added to a 96-well assay plate (PerkinElmer or Corning) as follows: 10 μl test compound or DMSO, 40 ul CXCR2 assay buffer or GRO-α stock, 100 μl of reaction mixture, 50 μl of ligand stock (Final [Ligand]=0.1 nM). When 40× stock solutions of test compounds in DMSO were prepared, then the above protocol was used except instead 5 μl test compound or DMSO and 45 μl CXCR2 assay buffer were used.
Alternative CXCR2 SPA Assay
Protocol Using the CXCR2 50 μl Assay
For each 50 μl reaction, a working stock of 0.031 μg/μl hCXCR2-CHO over-expressing membranes with a specific activity of 0.4 pmol/mg (Biosignal Packard) and 2.5 μg/μl WGA-SPA beads (Perkin Elmer Life Sciences) was prepared in CXCR2 assay buffer (25 mM HEPES, pH 7.4, 2.0 mM CaCl2, 1 mM MgCl2) (Sigma). This mixture was incubated on ice for 5 minutes. A 0.50 nM stock of ligand, [^125I]-IL-8 (Perkin Elmer Life Sciences), was prepared in the CXCR2 assay buffer. Test compounds were first serially diluted by half-logs in DMSO (Sigma) and then diluted 13.3-fold in CXCR2 assay buffer. The above solutions were added to a Corning NBS (non-binding surface) 96-well assay plate as follows: 20 μl test compound or 7.5% DMSO (final [DMSO]=3%), 20 μl of membranes and SPA bead mixture (final [membrane]=0.625 μg/reaction; final [SPA bead]=50 μg/reaction), 10 μl of ligand stock (final [^125I-IL-8]=0.10 nM). The assay plates were incubated for 2 hours before cpm/well were determined in a Microbeta Trilux counter (Perkin Elmer Life Sciences). IC50 values were quantified using nonlinear regression analysis in GraphPad Prism.
Protocol Using the CXCR2 200 μl Assay
For each 200 μl reaction, a working stock of 0.02 μg/μl hCXCR2-CHO over-expressing membranes with a specific activity of 0.6 pmol/mg (Biosignal Packard) and 2 μg/μl WGA-SPA beads (Perkin Elmer Life Sciences) was prepared in CXCR2 assay buffer (25 mM HEPES, pH 7.4, 2.0 mM CaCl2, 1 mM MgCl2) (Sigma). This mixture was incubated on ice for 5 minutes. A 0.40 nM stock of ligand, [^125I]-IL-8 (Perkin Elmer Life Sciences), was prepared in the CXCR2 assay buffer. Test compounds were first serially diluted by half-logs in DMSO (Sigma) and then diluted […] in CXCR2 assay buffer. The above solutions were added to a Corning NBS (non-binding surface) 96-well assay plate as follows: 50 μl test compound or 10% DMSO (final [DMSO]=2.5%), 100 μl of membranes and SPA bead mixture (final [membrane]=2 μg/reaction; final [SPA bead]=200 μg/reaction), 50 μl of ligand stock (final [^125I-IL-8]=0.10 nM). The assay plates were incubated for 2 hours before cpm/well were determined in a Microbeta Trilux counter (Perkin Elmer Life Sciences). IC50 values were quantified using nonlinear regression analysis in GraphPad Prism.

[2] = biological target: T2, hCXCR1 (Homo sapiens, UniProt P25024); test: CXCR1 SPA assay ([125I]-IL-8 binding, incl. alternative Biosignal Packard and Euroscreen membrane protocols); conditions: hCXCR1-CHO membranes
T2 construct: purchased Biosignal / Biosignal Packard; Euroscreen (alternative protocol); host or cells: CHO
T2 sequence (P25024 1-350): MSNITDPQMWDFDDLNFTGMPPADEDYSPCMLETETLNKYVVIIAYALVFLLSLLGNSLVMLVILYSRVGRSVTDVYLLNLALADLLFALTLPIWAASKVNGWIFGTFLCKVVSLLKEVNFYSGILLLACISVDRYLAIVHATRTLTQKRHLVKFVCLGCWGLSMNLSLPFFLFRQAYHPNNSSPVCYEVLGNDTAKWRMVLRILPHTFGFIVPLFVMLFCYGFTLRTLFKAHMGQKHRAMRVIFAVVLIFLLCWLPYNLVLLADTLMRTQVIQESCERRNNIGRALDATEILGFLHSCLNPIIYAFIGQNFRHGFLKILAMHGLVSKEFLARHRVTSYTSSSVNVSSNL
Protocol: For each well of a 96 well plate, a reaction mixture of 10 μg hCXCR1-CHO overexpressing membranes (Biosignal) and 200 μg/well WGA-SPA beads (Amersham) in 100 μl was prepared in CXCR1 assay buffer (25 mM HEPES, pH 7.8, 2 mM CaCl2, 1 mM MgCl2, 125 mM NaCl, 0.1% BSA) (Sigma). A 0.4 nM stock of ligand, [125I]-IL-8 (NEN) was prepared in the CXCR1 assay buffer. 20× stock solutions of test compounds were prepared in DMSO (Sigma). A 6× stock solution of IL-8 (R&D) was prepared in CXCR2 assay buffer. The above solutions were added to a 96-well assay plate (PerkinElmer) as follows: 10 μl test compound or DMSO, 40 μl CXCR1 assay buffer or IL-8 stock, 100 μl of reaction mixture, 50 μl of ligand stock (Final [Ligand]=0.1 nM).
Alternative CXCR1 SPA Assay
Protocol Using CXCR1-Expressing Membranes from Biosignal Packard
For each 50 μl reaction, a working stock of 0.25 μg/μl hCXCR1-CHO over-expressing membranes with a specific activity of 0.05 pmol/mg (Biosignal Packard) and 25 μg/μl WGA-SPA beads (Perkin Elmer Life Sciences) was prepared in CXCR1 assay buffer (25 mM HEPES, pH 7.8, 0.1 mM CaCl2, 1 mM MgCl2, 100 mM NaCl) (Sigma). […] The assay plates were incubated for 4 hours before cpm/well were determined in a Microbeta Trilux counter (Perkin Elmer Life Sciences). IC50 values were quantified using nonlinear regression analysis in GraphPad Prism. […]

[3] = biological target: T3, CCR7 (Homo sapiens, UniProt P32248); test: CCR7 [35S]GTPγS exchange assay (SPA, Ba/F3-CCR7 membranes, MIP-3β); format: biochemical; conditions: 2 nM MIP-3β
T3 construct: expressed in transfected cells; host or cells: Ba/F3
T3 sequence (P32248 25-378): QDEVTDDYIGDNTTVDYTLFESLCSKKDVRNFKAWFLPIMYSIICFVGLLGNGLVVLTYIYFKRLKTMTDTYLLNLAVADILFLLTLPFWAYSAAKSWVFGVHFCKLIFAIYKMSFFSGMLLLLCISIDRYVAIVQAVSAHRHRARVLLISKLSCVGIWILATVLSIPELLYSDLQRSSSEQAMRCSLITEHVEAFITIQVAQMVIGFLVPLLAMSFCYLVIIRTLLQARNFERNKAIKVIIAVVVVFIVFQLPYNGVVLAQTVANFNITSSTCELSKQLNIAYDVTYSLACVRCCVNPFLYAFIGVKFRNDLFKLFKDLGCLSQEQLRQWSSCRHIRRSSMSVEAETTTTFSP
Protocol: CCR7 Membrane Preparation.
Ba/F3-CCR7 membranes were prepared as previously described (Hipkin et al., J. Biol. Chem., 272, 1997, 13869-76). Cells were pelleted by centrifugation, incubated in homogenization buffer (10 mM Tris-HCl, 5 mM EDTA, 3 mM EGTA, pH 7.6) and 1 μM PMSF for 30 min. on ice. The cells were then lysed with a Dounce homogenizer using stirrer type RZR3 polytron homogenizer (Caframo, Wiarton, Ont.) with 12 strokes at 900 RPM. The intact cells and nuclei were removed by centrifugation at 500×g for 5 min. The cell membranes in the supernatant were then pelleted by centrifugation at 100,000×g for 30 min. The membranes were then resuspended in glygly buffer (20 mM glycylglycine, 1 mM MgCl2, 250 mM sucrose, pH 7.2), aliquoted, quick frozen and stored at −80° C.
CCR7 [^35S]GTPγS Exchange Assay.
The exchange of guanosine 5′-[γ-^35S]triphospate ([^35S]GTPγS, triethylammonium salt; specific activity=1250 Ci/mmol; NEN Boston, Mass.) was measured using a scintillation proximity assay (SPA) as previously described (Cox, et. al., Mol. Pharmacol., 59, 2001, 707-15). […] Membrane-bound [^35S]GTPγS was measured using a 1450 Microbeta Trilux counter (Wallac, Gaithersburg, Md.).

Ki [1] | Ki [2] [nM] | EC50 [3] [nM] | Compound
7.6 nM and 7.6 to 51 nM |  |  | CC[C@@H](NC1=NS(=O)(=O)C=C1Nc1cccc(C(=O)N(C)C)c1O)c1ccc(C)o1 [Example 2]
19 nM and 7.6 to 51 nM | 345 |  | Cc1cc([C@H](NC2=NS(=O)(=O)C=C2Nc2cccc(C(=O)N(C)C)c2O)C(C)C)oc1C [Example 6]
7.6 to 51 nM |  |  | CCOC(=O)C1=C(Nc2cccc(C(=O)N(C)C)c2O)C(N[C@H](CC)c2ccc(C)o2)=NS1(=O)=O [Example 1]
7.6 to 51 nM |  |  | CCOC(=O)C1=C(N[C@H](CC)c2ccccc2)C(Nc2cccc(C(=O)N(C)C)c2O)=NS1(=O)=O [Example 3]
 |  | 9500 | CCOC(=O)C1=C(Nc2cccc(C(=O)N(C)C)c2O)C(N[C@H](CC)c2cc(C(C)C)co2)=NS1(=O)=O [Example 162]
7.6 to 51 nM |  |  | CC[C@@H](NC1=CS(=O)(=O)N=C1Nc1cccc(C(=O)N(C)C)c1O)c1ccccc1 [Example 4]
7.6 to 51 nM |  |  | CCOC(=O)C1=C(Nc2cccc(C(=O)N(C)C)c2O)C(N[C@@H](c2cc(C)c(C)o2)C(C)C)=NS1(=O)=O [Example 5]

Source: patent publication US7671212B2, “Isothiazole dioxides as CXC- and CC-chemokine receptor ligands” (Schering Corporation, priority 2003, dated 2010)
